Drawing on ChEMBL document CHEMBL1159070, “Synthesis and disulfide bond connectivity-activity studies of a kalata B1-inspired cyclopeptide against dengue NS2B-NS3 protease” (Bioorg Med Chem, 2010), this text covers IC50, Ki and Activity for five compounds.

pIC50, pKi: −log10 of the molar value. The source made the active and inactive calls. No cut-off for these calls is given here.

Experiment [1] can be described thus: (§1) Inhibition of Dengue virus 2 recombinant NS2B/3 protease expressed in Escherichia coli BL21(DE3) assessed as Dabcyl-KGRRSSKL-Edans substrate cleavage by fluorimetry. On the set-up: species or system dengue virus type 2.
For another experiment, the system named is dengue virus type 2. The description is as §1.

Regarding `CC(C)C[C@@H]1NC(=O)CNC(=O)[C@H](CCCNC(=N)N)NC(=O)[C@H](CCCNC(=N)N)NC(=O)[C@H]([C@@H](C)O)NC(=O)[C@@H]2CSSC[C@H](NC(=O)[C@H](C(C)C)NC(=O)[C@@H]3CCCN3C1=O)C(=O)NCC(=O)N[C@@H](CO)C(=O)N[C@@H](CCC(=O)O)C(=O)N[C@@H](CCC(=O)O)C(=O)N[C@@H](CO)C(=O)N[C@@H](CCCNC(=N)N)C(=O)N[C@@H](CCCNC(=N)N)C(=O)NCC(=O)N[C@H]1CSSC[C@H](NC(=O)CNC(=O)[C@@H]3CCCN3C(=O)[C@H]([C@@H](C)O)NC(=O)[C@@H](N)CC(=O)NC1=O)C(=O)N[C@@H](CCCNC(=N)N)C(=O)N[C@@H](CCCNC(=N)N)C(=O)N[C@@H](CO)C(=O)N[C@@H](Cc1c[nH]c3ccccc13)C(=O)N1CCC[C@H]1C(=O)N[C@@H](C(C)C)C(=O)N2`, in experiment [1], the pIC50 is 5.03 and the pKi is 5.52.

As to `CC(C)C[C@H](NC(=O)CN)C(=O)N1CCC[C@H]1C(=O)N[C@H](C(=O)N[C@@H](CS)C(=O)NCC(=O)N[C@@H](CCC(=O)O)C(=O)N[C@H](C(=O)N[C@@H](CS)C(=O)N[C@H](C(=O)NCC(=O)NCC(=O)N[C@H](C(=O)N[C@@H](CS)C(=O)N[C@@H](CC(N)=O)C(=O)N[C@H](C(=O)N1CCC[C@H]1C(=O)NCC(=O)N[C@@H](CS)C(=O)N[C@H](C(=O)N[C@@H](CS)C(=O)N[C@@H](CO)C(=O)N[C@@H](CCC(=O)O)C(=O)N1CCC[C@H]1C(=O)N[C@H](C(=O)N[C@@H](CS)C(=O)N[C@H](C(=O)N[C@@H](CCCNC(=N)N)C(=O)N[C@@H](CC(N)=O)C(=O)O)[C@@H](C)O)C(C)C)[C@@H](C)O)[C@@H](C)O)[C@@H](C)O)C(C)C)[C@@H](C)O)C(C)C`, the result in the experiment with dengue virus type 2 was inactive. On to `CC(C)C[C@@H]1NC(=O)CNC(=O)[C@H](CCCNC(=N)N)NC(=O)[C@H](CCCNC(=N)N)NC(=O)[C@H]([C@@H](C)O)NC(=O)[C@@H]2CSSC[C@H](NC(=O)CNC(=O)[C@@H]3CCCN3C(=O)[C@H]([C@@H](C)O)NC(=O)[C@@H](N)CC(=O)NC(=O)[C@@H]3CSSC[C@H](NC(=O)[C@H](C(C)C)NC(=O)[C@@H]4CCCN4C1=O)C(=O)NCC(=O)N[C@@H](CO)C(=O)N[C@@H](CCC(=O)O)C(=O)N[C@@H](CCC(=O)O)C(=O)N[C@@H](CO)C(=O)N[C@@H](CCCNC(=N)N)C(=O)N[C@@H](CCCNC(=N)N)C(=O)NCC(=O)N3)C(=O)N[C@@H](CCCNC(=N)N)C(=O)N[C@@H](CCCNC(=N)N)C(=O)N[C@@H](CO)C(=O)N[C@@H](Cc1c[nH]c3ccccc13)C(=O)N1CCC[C@H]1C(=O)N[C@@H](C(C)C)C(=O)N2`, for which, in experiment [1], the pIC50 was 5.37 and the pKi is 5.86. Turning to `CC(C)C[C@@H]1NC(=O)CNC(=O)[C@H](CCCNC(=N)N)NC(=O)[C@H](CCCNC(=N)N)NC(=O)[C@H]([C@@H](C)O)NC(=O)[C@H](CS)NC(=O)[C@H](C(C)C)NC(=O)[C@@H]2CCCN2C(=O)[C@H](Cc2c[nH]c3ccccc23)NC(=O)[C@H](CO)NC(=O)[C@H](CCCNC(=N)N)NC(=O)[C@H](CCCNC(=N)N)NC(=O)[C@H](CS)NC(=O)CNC(=O)[C@H]2CCCN2C(=O)[C@H]([C@@H](C)O)NC(=O)[C@@H](N)CC(=O)NC(=O)[C@H](CS)NC(=O)CNC(=O)[C@H](CCCNC(=N)N)NC(=O)[C@H](CCCNC(=N)N)NC(=O)[C@H](CO)NC(=O)[C@H](CCC(=O)O)NC(=O)[C@H](CCC(=O)O)NC(=O)[C@H](CO)NC(=O)CNC(=O)[C@H](CS)NC(=O)[C@H](C(C)C)NC(=O)[C@@H]2CCCN2C1=O`, in the experiment with dengue virus type 2, the result was Active. Still for that read-out and setting: the entry for `CC(C)C[C@@H]1NC(=O)CNC(=O)[C@H](CC(N)=O)NC(=O)[C@H](CCCNC(=N)N)NC(=O)[C@H]([C@@H](C)O)NC(=O)[C@H](CS)NC(=O)[C@H](C(C)C)NC(=O)[C@@H]2CCCN2C(=O)[C@H](CCC(=O)O)NC(=O)[C@H](CO)NC(=O)[C@H](CS)NC(=O)[C@H]([C@@H](C)O)NC(=O)[C@H](CS)NC(=O)CNC(=O)[C@@H]2CCCN2C(=O)[C@H]([C@@H](C)O)NC(=O)[C@H](CC(N)=O)NC(=O)[C@H](CS)NC(=O)[C@H]([C@@H](C)O)NC(=O)CNC(=O)CNC(=O)[C@H](C(C)C)NC(=O)[C@H](CS)NC(=O)[C@H]([C@@H](C)O)NC(=O)[C@H](CCC(=O)O)NC(=O)CNC(=O)[C@H](CS)NC(=O)[C@H](C(C)C)NC(=O)[C@@H]2CCCN2C1=O` is “inactive”.

The pIC50 is −log10 of the IC50, conventionally taken in molar units. As usually defined, the pKi is −log10 of the Ki, conventionally taken in molar units.
